# Results reported in US20120219952A1, “CARBAPENEMASE AND ANTIBACTERIAL TREATMENT” (priority 2009, published 2012).
# B1: DIM-1: Ambler class B carbapenemase (Dutch IMipenemase) from P. stutzeri 13, SEQ ID NO:1 (protein, listed as Pseudomonas stutzeri)
# chain: MRTHFTALLLLFSLSSLANDEVPELRIEKVKENIFLHTSYSRVNGFGLVSSNGLVVIDKGNAFIVDTPWSDRDTETLVHWIRKNGYELLGSVSTHWHEDRTAGIKWLNDQSISTYATTSTNHLLKENKKEPAKYTLKGNESTLVDGLIEVFYPGGGHTIDNVVVWLPKSKILFGGCFVRSLDSEGLGYTGEAHIDQWSRSAQNALSRYSEAQIVIPGHGKIGDIALLKHTKSLAETASNKSIQPNANASAD
# Columns and labels:
# [1] = test system: P. stutzeri clinical isolate 13; experiment: Routine antibiogram by disk diffusion assay; assay type: cell-based, Pseudomonas stutzeri; details: clinical isolate P. stutzeri 13 expressing DIM-1
# Method: Bacterial strains. P. stutzeri clinical isolate 13 was identified with the API-20 NE system (BioMérieux, Marcy l'Etoile, France), and confirmed by rRNA sequencing. Escherichia coli TOP10 (In Vitrogen, Carlsbad, Calif.)was the host for cloning experiments (Poirel et al., 2001)
# (§1) Susceptibility testing. Antibiotic-containing disks were used for routine antibiograms by the disk diffusion assay (Sanofi-Diagnostic Pasteur, Marnes-la-Coquette, France). The ESBL double-disk synergy test was performed with disks containing ceftazidime or cefepime and ticarcillin-clavulanic acid on Mueller-Hinton agar plates, and the results were interpreted as described previously (Poirel, Le Thomas et al., 2000). The carbapenemase detection was performed by using Etest carbapenem-containing strips (AB Biodisk, Solna, Sweden).
# P. stutzeri 13 [2] = experiment: MICs by agar dilution technique; assay type: cell-based, Pseudomonas stutzeri; details: for β-lactam susceptibility from MICs: agar dilution, 37° C., 18 h; for restoration of susceptibility to penicillins on addition of inhibitor: clavulanic acid 2 μg/ml, tazobactam 4 μg/ml
# Method: (§2) MICs were determined by an agar dilution technique with Mueller-Hinton agar (Sanofi-Diagnostic Pasteur) with an inoculum of 10^4 CFU/ml, as described previously (Poirel, Le Thomas et al., 2000). All plates were incubated at 37° C. for 18 h at ambient atmosphere. MICs of β-lactams were determined alone or in combination with a fixed concentration of clavulanic acid (2 μg/ml), tazobactam (4 μg/ml), and sulbactam (4 μg/ml). MIC results were interpreted according to the guidelines of the National Committee for Clinical Laboratory Standards (NCCLS) (CLSI).
# E. coli DH10B(pXD-1) = experiment: MICs by agar dilution technique; assay type: cell-based, Escherichia coli; details: for β-lactam susceptibility from MICs: agar dilution, 37° C., 18 h; for restoration of susceptibility to penicillins on addition of inhibitor: clavulanic acid 2 μg/ml, tazobactam 4 μg/ml
# Method: as §2
# carbapenemase DIM-1 = carbapenemase DIM-1 (Stutzerimonas stutzeri, UniProt D5JGF6); experiment: Kinetic measurements with purified carbapenemase (hydrolysis of β-lactams); assay type: biochemical, P. stutzeri; details: purified DIM-1, 30° C., 100 mM sodium phosphate pH 7.0
# Excerpt: (§3) Carbapenemase purification and isoelectric focusing (IEF) analysis. […] Carbapenemase was purified by ion-exchange chromatography.
# P. stutzeri 13 [3] = experiment: Carbapenemase detection with Etest carbapenem-containing strips; assay type: cell-based, Pseudomonas stutzeri; details: imipenem alone vs with EDTA
# Method: as §1
# [4] = test system: CC(C)(O/N=C(\C(=O)N[C@@H]1C(=O)N2C(C(=O)[O-])=C(C[n+]3ccccc3)CS[C@H]12)c1csc(N)n1)C(=O)O; experiment: Kinetic measurements with purified carbapenemase (hydrolysis of β-lactams); assay type: biochemical, P. stutzeri; details: other: purified DIM-1, 30° C., 100 mM sodium phosphate pH 7.0
# Excerpt: as §3
# [5] = Specific activity of purified carbapenemase (imipenem hydrolysis); assay type: biochemical; details: purified enzyme; 1 U = 1 μmol of imipenem hydrolyzed per min per mg of protein
# Method: The specific activity of the purified carbapenemase from E. coli DH10B(pXD-1) was obtained as described previously (Poirel et al., 1999). One unit of enzyme activity was defined as the activity which hydrolyzed 1 μmol of imipenem per min per mg of protein. The total protein content was measured with the DC Protein assay kit (Bio-Rad, Ivry-sur-Seine, France).
molecule,measurement,setting,value
C[C@H]1[C@H](NC(=O)/C(=N\OC(C)(C)C(=O)O)c2csc(N)n2)C(=O)N1S(=O)(=O)O [aztreonam],susceptibility of P. stutzeri 13,[1],fully susceptible
same,β-lactam susceptibility from MICs,P. stutzeri 13 [2],spared
same,β-lactam susceptibility from MICs,E. coli DH10B(pXD-1),spared
same,"hydrolysis by DIM-1 (relative hydrolysis rates, substrate profile)",carbapenemase DIM-1,excluding
NC[C@H]1O[C@H](O[C@H]2[C@H](O)[C@@H](O[C@H]3O[C@H](CO)[C@@H](O)[C@H](N)[C@H]3O)[C@H](N)C[C@@H]2N)[C@H](N)C[C@@H]1O [tobramycin],susceptibility of P. stutzeri 13,[1],resistant
C[C@]1(Cn2ccnn2)[C@H](C(=O)O)N2C(=O)C[C@H]2S1(=O)=O [tazobactam],restoration of susceptibility to penicillins on addition of inhibitor,P. stutzeri 13 [2],did not restore any susceptibility to penicillins
same,restoration of susceptibility to penicillins on addition of inhibitor,E. coli DH10B(pXD-1),did not restore any susceptibility to penicillins
CO/N=C(\C(=O)N[C@@H]1C(=O)N2C(C(=O)O)=C(COC(C)=O)CS[C@H]12)c1csc(N)n1 [cefotaxime],"hydrolysis by DIM-1 (relative hydrolysis rates, substrate profile)",carbapenemase DIM-1,hydrolyzed at a similar level as benzylpenicillin
CO[C@@]1(NC(=O)Cc2cccs2)C(=O)N2C(C(=O)O)=C(COC(N)=O)CS[C@@H]21 [cefoxitin],"hydrolysis by DIM-1 (relative hydrolysis rates, substrate profile)",carbapenemase DIM-1,good substrate
gentamicin,susceptibility of P. stutzeri 13,[1],resistant
NCC[C@H](O)C(=O)N[C@@H]1C[C@H](N)[C@@H](O[C@H]2O[C@H](CN)[C@@H](O)[C@H](O)[C@H]2O)[C@H](O)[C@H]1O[C@H]1O[C@H](CO)[C@@H](O)[C@H](N)[C@H]1O [amikacin],susceptibility of P. stutzeri 13,[1],susceptible
C[C@@H](O)[C@H]1C(=O)N2C(C(=O)O)=C(SCCN=CN)C[C@H]12 [imipenem],MIC (carbapenem-containing E-test),P. stutzeri 13 [3],64 µg/mL
CO/N=C(\C(=O)N[C@@H]1C(=O)N2C(C(=O)[O-])=C(C[n+]3cccc4c3CCC4)CS[C@H]12)c1csc(N)n1 [cefpirome],susceptibility of P. stutzeri 13,[1],reduced susceptibility
CC1(C)S[C@@H]2[C@H](NC(=O)[C@H](C(=O)O)c3ccsc3)C(=O)N2[C@H]1C(=O)O [ticarcillin],susceptibility of P. stutzeri 13,[1],resistant
colistin,susceptibility of P. stutzeri 13,[1],susceptible
O=C(N[C@H](CO)[C@H](O)c1ccc([N+](=O)[O-])cc1)C(Cl)Cl [chloramphenicol],susceptibility of P. stutzeri 13,[1],resistant
CCN1CCN(C(=O)N[C@@H](C(=O)N[C@@H]2C(=O)N3[C@@H]2SC(C)(C)[C@@H]3C(=O)O)c2ccccc2)C(=O)C1=O [piperacillin],susceptibility of P. stutzeri 13,[1],resistant
piperacillin-tazobactam,susceptibility of P. stutzeri 13,[1],resistant
CCN[C@@H]1C[C@H](N)[C@@H](O[C@H]2OC(CN)=CC[C@H]2N)[C@H](O)[C@H]1O[C@H]1OC[C@](C)(O)[C@H](NC)[C@H]1O [netilmicin],susceptibility of P. stutzeri 13,[1],susceptible
CO/N=C(\C(=O)N[C@@H]1C(=O)N2C(C(=O)[O-])=C(C[N+]3(C)CCCC3)CS[C@H]12)c1csc(N)n1 [cefepime],susceptibility of P. stutzeri 13,[1],reduced susceptibility
CC(C)(O/N=C(\C(=O)N[C@@H]1C(=O)N2C(C(=O)[O-])=C(C[n+]3ccccc3)CS[C@H]12)c1csc(N)n1)C(=O)O [ceftazidime],susceptibility of P. stutzeri 13,[1],reduced susceptibility
same,"hydrolysis by DIM-1 (relative hydrolysis rates, substrate profile)",carbapenemase DIM-1,well hydrolyzed
C[C@@H](O)[C@H]1C(=O)N2C(C(=O)O)=C(S[C@@H]3CN[C@H](C(=O)N(C)C)C3)[C@H](C)[C@H]12 [meropenem],β-lactam susceptibility from MICs,P. stutzeri 13 [2],reduced susceptibility
same,β-lactam susceptibility from MICs,E. coli DH10B(pXD-1),reduced susceptibility
O=C(O)[C@H]1/C(=C/CO)O[C@@H]2CC(=O)N21 [clavulanic acid],restoration of susceptibility to penicillins on addition of inhibitor,P. stutzeri 13 [2],did not restore any susceptibility to penicillins
same,restoration of susceptibility to penicillins on addition of inhibitor,E. coli DH10B(pXD-1),did not restore any susceptibility to penicillins
carbapenemase DIM-1 (Stutzerimonas stutzeri),Km,[4],50 µM
B1,specific activity,[5],21 U.mg of protein^−1
